Laboratory results reported in ChEMBL document CHEMBL4265899, “Trisubstituted thiazoles as potent and selective inhibitors of Plasmodium falciparum protein kinase G (PfPKG)” (Bioorg Med Chem Lett, 2018).

Columns and labels:
[1] = biological target: cGMP-dependent protein kinase (Plasmodium falciparum, UniProt W7JX98); assay: Inhibition of Plasmodium falciparum protein kinase G
[2] = biological target: Mitogen-activated protein kinase 8 (Homo sapiens) (UniProt P45983); assay: Inhibition of human JNK1 at 100 nM
[3] = biological target: Mitogen-activated protein kinase 14 (Homo sapiens) (UniProt Q16539); assay: Inhibition of human p38a MAPK at 100 nM
[4] = biological target: Ribosomal protein S6 kinase alpha-3 (Homo sapiens) (UniProt P51812); assay: Inhibition of human RSK2 at 100 nM
[5] = biological target: Serine/threonine-protein kinase N2 (Homo sapiens) (UniProt Q16513); assay: Inhibition of human PRK2 at 100 nM
[6] = biological target: T1, Serine/threonine-protein kinase D1 (Homo sapiens) (UniProt Q15139); assay: Inhibition of human PKD1 at 100 nM
T1 sequence (whole entry): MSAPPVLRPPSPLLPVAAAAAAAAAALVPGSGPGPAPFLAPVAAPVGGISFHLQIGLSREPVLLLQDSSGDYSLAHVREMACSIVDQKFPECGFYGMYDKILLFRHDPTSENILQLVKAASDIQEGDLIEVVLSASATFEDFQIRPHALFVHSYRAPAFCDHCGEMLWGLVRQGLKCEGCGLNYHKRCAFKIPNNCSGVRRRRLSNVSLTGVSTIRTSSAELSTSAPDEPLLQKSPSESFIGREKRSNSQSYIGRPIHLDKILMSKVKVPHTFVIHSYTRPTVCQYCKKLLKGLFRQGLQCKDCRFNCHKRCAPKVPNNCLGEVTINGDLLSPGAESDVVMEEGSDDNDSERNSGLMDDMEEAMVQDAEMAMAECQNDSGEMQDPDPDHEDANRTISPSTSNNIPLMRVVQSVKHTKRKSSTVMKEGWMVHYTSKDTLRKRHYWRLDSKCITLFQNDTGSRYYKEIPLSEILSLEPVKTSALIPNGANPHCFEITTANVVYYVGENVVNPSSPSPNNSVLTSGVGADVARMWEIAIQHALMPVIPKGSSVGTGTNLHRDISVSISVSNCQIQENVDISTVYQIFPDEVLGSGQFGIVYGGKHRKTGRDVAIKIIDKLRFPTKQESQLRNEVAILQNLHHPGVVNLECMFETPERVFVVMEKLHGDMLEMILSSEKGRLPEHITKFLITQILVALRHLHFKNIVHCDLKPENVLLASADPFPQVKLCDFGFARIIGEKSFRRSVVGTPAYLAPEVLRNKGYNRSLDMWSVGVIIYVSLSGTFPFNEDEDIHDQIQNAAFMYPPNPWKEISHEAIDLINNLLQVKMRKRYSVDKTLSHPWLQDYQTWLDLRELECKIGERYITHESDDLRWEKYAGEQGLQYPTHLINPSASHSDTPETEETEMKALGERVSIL

[7] = biological target: Calcium/calmodulin-dependent protein kinase type 1 (Homo sapiens) (UniProt Q14012); assay: Inhibition of human CAMK1 at 100 nM
[8] = biological target: Phosphorylase kinase (Homo sapiens) (UniProt P15735+P46020+P46019+Q93100+Q16816); assay: Inhibition of human PHK at 100 nM; format: protein-complex assay
[9] = biological target: Serine/threonine-protein kinase Chk2 (Homo sapiens) (UniProt O96017); assay: Inhibition of human CHK2 at 100 nM
[10] = biological target: Serine/threonine-protein kinase PLK1 (Homo sapiens) (UniProt P53350); assay: Inhibition of human PLK1 at 100 nM
[11] = biological target: Aurora kinase A (Homo sapiens) (UniProt O14965); assay: Inhibition of human Aurora A at 100 nM
[12] = biological target: Aurora kinase B (Homo sapiens) (UniProt Q96GD4); assay: Inhibition of human Aurora B at 100 nM
[13] = biological target: AMP-activated protein kinase, AMPK (Homo sapiens) (UniProt P54646+O43741+P54619+Q9UGJ0+Q9Y478+Q13131+Q9UGI9); assay: Inhibition of human AMPK at 100 nM; format: protein-complex assay
[14] = biological target: Serine/threonine-protein kinase BRSK2 (Homo sapiens) (UniProt Q8IWQ3); assay: Inhibition of human BRSK2 at 100 nM
[15] = biological target: Casein kinase 2 (Homo sapiens) (UniProt P67870+P68400+P19784+Q8NEV1); assay: Inhibition of human CK2 at 100 nM; format: protein assay
[16] = biological target: Serine/threonine-protein kinase pim-1 (Homo sapiens) (UniProt P11309); assay: Inhibition of human PIM1 at 100 nM
[17] = biological target: Fibroblast growth factor receptor 1 (Homo sapiens) (UniProt P11362); assay: Inhibition of human FGFR1 at 100 nM
[18] = biological target: Vascular endothelial growth factor receptor 2 (Homo sapiens) (UniProt P35968); assay: Inhibition of human VEGFR at 100 nM
[19] = biological target: Mitogen-activated protein kinase kinase kinase kinase 2 (Homo sapiens) (UniProt Q12851); assay: Inhibition of human GCK at 100 nM
[20] = biological target: Mitogen-activated protein kinase kinase kinase 9 (Homo sapiens) (UniProt P80192); assay: Inhibition of human MLK1 at 100 nM
[21] = biological target: Serine/threonine-protein kinase STK11 (Homo sapiens) (UniProt Q15831); assay: Inhibition of human LKB1 at 100 nM
Homo sapiens = species on record: Homo sapiens; conditions: at 100 nM
Description: Inhibition of human PKA at 100 nM

[22] = Permeability of the compound by PAMPA

Chain of Ribosomal protein S6 kinase alpha-3 (Homo sapiens) (P51812 whole entry): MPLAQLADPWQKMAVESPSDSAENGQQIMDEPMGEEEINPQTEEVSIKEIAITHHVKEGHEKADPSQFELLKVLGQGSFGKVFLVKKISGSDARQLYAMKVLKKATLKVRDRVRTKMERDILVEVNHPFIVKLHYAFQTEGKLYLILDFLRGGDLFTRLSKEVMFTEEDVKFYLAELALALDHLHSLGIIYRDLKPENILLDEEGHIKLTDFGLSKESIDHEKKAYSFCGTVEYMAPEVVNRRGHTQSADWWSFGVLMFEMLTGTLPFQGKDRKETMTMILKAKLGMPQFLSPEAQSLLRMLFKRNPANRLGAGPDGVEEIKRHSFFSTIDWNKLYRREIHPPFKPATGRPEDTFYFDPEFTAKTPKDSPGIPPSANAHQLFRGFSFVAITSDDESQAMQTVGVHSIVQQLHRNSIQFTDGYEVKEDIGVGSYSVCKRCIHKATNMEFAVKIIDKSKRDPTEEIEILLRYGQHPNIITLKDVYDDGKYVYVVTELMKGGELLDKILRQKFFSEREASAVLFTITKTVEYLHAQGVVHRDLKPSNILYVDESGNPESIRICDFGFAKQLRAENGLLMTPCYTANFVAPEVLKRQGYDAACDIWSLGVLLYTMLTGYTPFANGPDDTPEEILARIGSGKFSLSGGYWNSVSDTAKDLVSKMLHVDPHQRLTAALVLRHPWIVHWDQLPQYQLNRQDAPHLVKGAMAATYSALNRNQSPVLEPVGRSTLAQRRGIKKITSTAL
Chain of Mitogen-activated protein kinase kinase kinase kinase 2 (Homo sapiens) (Q12851 whole entry): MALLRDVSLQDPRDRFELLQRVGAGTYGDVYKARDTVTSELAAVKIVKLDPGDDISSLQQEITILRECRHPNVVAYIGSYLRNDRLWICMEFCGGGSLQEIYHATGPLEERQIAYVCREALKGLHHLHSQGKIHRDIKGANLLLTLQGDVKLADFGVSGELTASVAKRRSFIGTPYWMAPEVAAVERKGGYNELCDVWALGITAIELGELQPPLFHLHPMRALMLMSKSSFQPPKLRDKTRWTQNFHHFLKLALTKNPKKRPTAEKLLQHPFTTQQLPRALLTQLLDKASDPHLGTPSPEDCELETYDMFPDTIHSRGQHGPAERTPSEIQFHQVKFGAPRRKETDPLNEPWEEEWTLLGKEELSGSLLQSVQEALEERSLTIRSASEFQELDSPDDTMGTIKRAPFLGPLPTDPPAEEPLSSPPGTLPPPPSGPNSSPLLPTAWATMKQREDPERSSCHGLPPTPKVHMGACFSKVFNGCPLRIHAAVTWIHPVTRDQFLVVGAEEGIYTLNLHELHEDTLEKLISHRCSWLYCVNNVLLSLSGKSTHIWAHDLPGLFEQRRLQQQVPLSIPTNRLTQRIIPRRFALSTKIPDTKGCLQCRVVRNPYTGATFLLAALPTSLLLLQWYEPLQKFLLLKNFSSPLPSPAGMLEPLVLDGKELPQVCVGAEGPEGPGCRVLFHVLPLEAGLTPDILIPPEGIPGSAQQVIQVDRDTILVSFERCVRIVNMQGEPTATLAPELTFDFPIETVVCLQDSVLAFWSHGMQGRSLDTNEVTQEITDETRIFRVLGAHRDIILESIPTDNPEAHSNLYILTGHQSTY
Chain of Serine/threonine-protein kinase PLK1 (Homo sapiens) (P53350 whole entry): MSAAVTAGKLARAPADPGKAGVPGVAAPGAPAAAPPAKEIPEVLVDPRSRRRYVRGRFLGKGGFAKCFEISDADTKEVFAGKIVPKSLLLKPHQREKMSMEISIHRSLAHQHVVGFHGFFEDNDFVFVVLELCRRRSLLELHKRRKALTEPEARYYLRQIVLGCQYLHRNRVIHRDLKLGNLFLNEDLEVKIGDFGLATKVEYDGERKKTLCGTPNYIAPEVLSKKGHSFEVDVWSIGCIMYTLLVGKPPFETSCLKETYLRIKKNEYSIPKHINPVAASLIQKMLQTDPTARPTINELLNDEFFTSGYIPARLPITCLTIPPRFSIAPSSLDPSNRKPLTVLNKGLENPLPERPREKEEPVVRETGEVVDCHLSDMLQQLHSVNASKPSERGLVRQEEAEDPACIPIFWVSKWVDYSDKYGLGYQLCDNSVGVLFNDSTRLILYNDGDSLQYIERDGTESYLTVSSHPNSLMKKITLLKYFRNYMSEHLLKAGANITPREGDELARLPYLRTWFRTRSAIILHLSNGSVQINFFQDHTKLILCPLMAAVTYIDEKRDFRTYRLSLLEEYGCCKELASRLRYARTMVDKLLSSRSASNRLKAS
Chain of Serine/threonine-protein kinase pim-1 (Homo sapiens) (P11309 whole entry, looked up): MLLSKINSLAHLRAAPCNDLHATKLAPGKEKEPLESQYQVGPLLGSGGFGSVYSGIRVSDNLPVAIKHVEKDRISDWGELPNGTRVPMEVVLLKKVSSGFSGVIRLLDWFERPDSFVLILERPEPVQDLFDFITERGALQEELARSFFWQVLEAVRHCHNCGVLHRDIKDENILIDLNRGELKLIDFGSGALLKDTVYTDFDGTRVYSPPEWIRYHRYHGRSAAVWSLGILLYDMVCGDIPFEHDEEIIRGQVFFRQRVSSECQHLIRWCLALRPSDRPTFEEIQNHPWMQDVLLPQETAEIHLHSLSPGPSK
Chain of Serine/threonine-protein kinase STK11 (Homo sapiens) (Q15831 whole entry): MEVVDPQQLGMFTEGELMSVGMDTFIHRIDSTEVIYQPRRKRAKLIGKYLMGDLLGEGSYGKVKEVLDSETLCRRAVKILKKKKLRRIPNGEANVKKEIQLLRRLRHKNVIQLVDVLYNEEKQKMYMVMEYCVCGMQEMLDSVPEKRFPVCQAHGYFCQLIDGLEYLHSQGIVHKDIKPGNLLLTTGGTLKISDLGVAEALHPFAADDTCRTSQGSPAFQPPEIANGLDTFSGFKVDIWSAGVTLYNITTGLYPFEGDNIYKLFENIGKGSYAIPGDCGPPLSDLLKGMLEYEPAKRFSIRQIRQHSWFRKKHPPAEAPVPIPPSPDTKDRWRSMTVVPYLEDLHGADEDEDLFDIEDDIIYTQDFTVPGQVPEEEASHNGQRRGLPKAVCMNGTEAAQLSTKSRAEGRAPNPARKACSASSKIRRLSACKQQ
Chain of Aurora kinase B (Homo sapiens) (Q96GD4 whole entry): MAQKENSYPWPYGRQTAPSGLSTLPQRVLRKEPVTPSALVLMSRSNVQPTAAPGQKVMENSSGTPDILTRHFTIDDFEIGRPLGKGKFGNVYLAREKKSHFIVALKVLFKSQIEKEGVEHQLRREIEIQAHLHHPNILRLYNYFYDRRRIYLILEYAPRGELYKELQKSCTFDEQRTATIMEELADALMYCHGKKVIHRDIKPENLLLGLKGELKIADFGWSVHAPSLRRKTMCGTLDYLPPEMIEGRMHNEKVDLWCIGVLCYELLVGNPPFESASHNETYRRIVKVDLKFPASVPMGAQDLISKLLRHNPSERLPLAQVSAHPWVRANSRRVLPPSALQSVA
Chain of Calcium/calmodulin-dependent protein kinase type 1 (Homo sapiens) (Q14012 whole entry, looked up): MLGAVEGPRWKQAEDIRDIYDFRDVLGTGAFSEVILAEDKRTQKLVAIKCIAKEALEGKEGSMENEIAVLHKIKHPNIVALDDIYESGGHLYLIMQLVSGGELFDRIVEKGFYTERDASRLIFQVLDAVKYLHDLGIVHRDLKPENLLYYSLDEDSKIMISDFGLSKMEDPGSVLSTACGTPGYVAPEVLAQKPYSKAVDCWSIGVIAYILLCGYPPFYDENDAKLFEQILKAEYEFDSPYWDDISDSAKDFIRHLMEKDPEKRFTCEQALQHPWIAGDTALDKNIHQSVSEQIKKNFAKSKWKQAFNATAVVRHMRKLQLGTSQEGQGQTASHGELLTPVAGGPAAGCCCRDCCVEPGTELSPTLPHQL
Chain of Mitogen-activated protein kinase 8 (Homo sapiens) (P45983 whole entry): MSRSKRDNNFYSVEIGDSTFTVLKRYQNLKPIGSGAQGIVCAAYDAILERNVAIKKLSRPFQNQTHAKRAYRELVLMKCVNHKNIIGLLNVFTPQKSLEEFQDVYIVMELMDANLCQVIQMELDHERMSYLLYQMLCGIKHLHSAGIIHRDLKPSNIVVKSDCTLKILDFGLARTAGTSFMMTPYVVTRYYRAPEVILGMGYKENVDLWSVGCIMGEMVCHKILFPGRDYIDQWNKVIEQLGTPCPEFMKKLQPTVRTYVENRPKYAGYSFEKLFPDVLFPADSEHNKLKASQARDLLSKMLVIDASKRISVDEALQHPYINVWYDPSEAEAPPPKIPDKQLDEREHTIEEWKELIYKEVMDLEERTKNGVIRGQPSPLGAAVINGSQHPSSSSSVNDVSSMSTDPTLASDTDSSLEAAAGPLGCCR
Chain of Aurora kinase A (Homo sapiens) (O14965 whole entry): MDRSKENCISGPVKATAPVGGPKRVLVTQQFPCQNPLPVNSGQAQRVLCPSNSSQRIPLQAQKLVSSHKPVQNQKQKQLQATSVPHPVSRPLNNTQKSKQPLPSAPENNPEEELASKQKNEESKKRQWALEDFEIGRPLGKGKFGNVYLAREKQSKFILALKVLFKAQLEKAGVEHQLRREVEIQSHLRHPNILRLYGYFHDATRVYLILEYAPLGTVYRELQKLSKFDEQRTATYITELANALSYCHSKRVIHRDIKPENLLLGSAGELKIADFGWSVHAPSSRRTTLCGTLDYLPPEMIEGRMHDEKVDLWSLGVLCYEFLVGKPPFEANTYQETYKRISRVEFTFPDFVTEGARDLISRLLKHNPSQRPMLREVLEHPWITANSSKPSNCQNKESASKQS
Chain of Mitogen-activated protein kinase 14 (Homo sapiens) (Q16539 whole entry): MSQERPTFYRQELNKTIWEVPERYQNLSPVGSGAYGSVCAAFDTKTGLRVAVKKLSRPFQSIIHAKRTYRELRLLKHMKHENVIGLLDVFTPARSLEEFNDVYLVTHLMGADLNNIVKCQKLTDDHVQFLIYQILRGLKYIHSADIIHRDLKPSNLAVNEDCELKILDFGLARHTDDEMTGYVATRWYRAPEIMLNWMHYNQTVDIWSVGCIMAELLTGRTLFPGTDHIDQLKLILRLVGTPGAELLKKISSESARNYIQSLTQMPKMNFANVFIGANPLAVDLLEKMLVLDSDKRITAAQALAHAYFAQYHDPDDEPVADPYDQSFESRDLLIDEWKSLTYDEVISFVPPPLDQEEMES

| SMILES | inhibition [2] | inhibition [3] | inhibition [4] | inhibition [5] | inhibition [6] | inhibition [7] | inhibition [8] | inhibition [9] | inhibition [10] | inhibition [11] | inhibition [12] | inhibition [14] | inhibition [15] | inhibition [16] | inhibition [17] | inhibition [18] | inhibition [19] | inhibition [20] | inhibition [21] | inhibition (Homo sapiens) | also measured |
| --- | --- | --- | --- | --- | --- | --- | --- | --- | --- | --- | --- | --- | --- | --- | --- | --- | --- | --- | --- | --- | --- |
| CN1CCC(c2nc(-c3cccc(S(C)(=O)=O)c3)c(-c3ccnc(Nc4ccc(N5CCNCC5)cc4)n3)s2)CC1 | < 70% | < 70% | < 70% | < 70% | < 70% | < 70% | < 70% | < 70% | < 70% | < 70% | < 70% | < 70% | < 70% | < 70% | < 70% | < 70% | < 70% | < 70% | < 70% | < 70% | IC50 [1]: 0.9 nM; inhibition [13]: < 70% |
| CN1CCC(c2nc(-c3ccc(F)c(NS(C)(=O)=O)c3)c(-c3ccnc(NCC4CC4)n3)s2)CC1 | < 70% | < 70% | < 70% | < 70% | < 70% | < 70% | < 70% | < 70% | < 70% | < 70% | < 70% | < 70% | < 70% | < 70% | < 70% | < 70% | < 70% | < 70% | < 70% | < 70% | Papp [22]: 5.7 ×10⁻⁶ cm/s |
